Five compounds from ChEMBL document CHEMBL1201862, “PubChem BioAssay data set” (2004) can be followed below.

Calls of active or inactive are those of the source.

The target in assay [1] is T1, Histone-lysine N-methyltransferase NSD2 (Homo sapiens, UniProt O96028).
T1 sequence (O96028 whole entry): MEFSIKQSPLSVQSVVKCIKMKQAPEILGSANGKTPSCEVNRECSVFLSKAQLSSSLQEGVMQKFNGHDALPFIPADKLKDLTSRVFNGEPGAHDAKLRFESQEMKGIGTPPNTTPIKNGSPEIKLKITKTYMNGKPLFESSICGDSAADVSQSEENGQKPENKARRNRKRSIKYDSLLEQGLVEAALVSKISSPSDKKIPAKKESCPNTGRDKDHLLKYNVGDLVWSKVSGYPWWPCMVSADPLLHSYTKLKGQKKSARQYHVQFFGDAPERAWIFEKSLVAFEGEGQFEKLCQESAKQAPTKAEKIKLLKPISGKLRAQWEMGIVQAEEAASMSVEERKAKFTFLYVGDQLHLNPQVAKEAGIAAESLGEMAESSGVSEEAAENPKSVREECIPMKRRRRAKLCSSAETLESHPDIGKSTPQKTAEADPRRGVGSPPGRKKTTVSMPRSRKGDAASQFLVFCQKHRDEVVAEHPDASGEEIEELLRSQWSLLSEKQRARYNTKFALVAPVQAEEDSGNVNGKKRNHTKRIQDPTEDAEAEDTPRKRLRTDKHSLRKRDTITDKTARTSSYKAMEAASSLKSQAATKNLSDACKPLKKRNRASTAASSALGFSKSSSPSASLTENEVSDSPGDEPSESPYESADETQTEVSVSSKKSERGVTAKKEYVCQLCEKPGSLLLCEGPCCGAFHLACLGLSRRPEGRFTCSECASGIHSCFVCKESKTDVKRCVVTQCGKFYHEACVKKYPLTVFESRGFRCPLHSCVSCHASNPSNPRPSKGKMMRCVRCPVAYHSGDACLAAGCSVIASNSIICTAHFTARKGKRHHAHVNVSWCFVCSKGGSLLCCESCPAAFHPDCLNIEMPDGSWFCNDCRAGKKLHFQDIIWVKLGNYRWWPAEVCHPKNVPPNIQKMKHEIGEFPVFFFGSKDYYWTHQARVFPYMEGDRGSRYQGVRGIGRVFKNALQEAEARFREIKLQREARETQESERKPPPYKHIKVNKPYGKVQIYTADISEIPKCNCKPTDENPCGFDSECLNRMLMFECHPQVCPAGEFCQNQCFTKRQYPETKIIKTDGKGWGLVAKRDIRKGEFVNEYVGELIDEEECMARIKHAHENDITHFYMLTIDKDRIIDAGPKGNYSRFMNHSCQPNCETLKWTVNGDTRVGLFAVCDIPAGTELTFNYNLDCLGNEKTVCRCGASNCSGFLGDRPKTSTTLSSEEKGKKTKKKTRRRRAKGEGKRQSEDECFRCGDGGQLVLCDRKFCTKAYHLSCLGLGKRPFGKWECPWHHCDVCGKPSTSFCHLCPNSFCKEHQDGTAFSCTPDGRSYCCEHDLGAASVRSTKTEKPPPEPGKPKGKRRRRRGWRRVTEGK
In kind it is biochemical.

In assay [2] the target is Serine/threonine-protein kinase pim-1 (Homo sapiens, UniProt P11309). It counts as functional.
Assay [3] deals with Glycogen synthase kinase-3 alpha (Homo sapiens, UniProt P49840). It counts as functional.
Assay [4] concerns the target Activated CDC42 kinase 1 (Homo sapiens, UniProt Q07912). Nature of the assay: Navigating the Kinome. Panel member name: ACK1. It counts as functional.
Assay [5] has as its target Serine/threonine-protein kinase Chk1 (Homo sapiens, UniProt O14757). In kind it is functional.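 Further: measured as one member of a kinome-wide kinase profiling panel.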
For assay [6], the target named is Insulin-like growth factor 1 receptor (Homo sapiens, UniProt P08069). Briefly: Navigating the Kinome. Panel member name: IGF1R. In kind it is functional.
Chain of Insulin-like growth factor 1 receptor (P08069 31-736 limits assumed): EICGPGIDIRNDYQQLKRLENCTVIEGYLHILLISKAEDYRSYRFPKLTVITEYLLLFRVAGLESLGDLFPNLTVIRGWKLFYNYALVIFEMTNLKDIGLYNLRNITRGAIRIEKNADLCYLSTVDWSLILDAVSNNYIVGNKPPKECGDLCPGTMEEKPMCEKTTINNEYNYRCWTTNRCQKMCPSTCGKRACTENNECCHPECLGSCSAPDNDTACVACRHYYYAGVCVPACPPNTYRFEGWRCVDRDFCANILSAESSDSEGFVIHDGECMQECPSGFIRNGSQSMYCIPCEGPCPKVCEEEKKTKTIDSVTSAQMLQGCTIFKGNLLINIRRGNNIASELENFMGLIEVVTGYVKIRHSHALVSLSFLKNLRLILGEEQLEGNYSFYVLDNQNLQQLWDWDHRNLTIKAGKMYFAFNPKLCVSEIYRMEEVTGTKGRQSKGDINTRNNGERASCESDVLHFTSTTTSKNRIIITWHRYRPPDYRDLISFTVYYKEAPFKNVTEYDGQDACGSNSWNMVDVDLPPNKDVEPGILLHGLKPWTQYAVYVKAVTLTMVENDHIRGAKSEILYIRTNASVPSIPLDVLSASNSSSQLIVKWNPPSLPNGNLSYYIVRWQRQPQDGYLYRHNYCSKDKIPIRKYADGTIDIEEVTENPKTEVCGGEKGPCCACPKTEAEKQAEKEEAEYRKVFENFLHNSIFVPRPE
Chain of Insulin-like growth factor 1 receptor (P08069 741-1367 limits assumed): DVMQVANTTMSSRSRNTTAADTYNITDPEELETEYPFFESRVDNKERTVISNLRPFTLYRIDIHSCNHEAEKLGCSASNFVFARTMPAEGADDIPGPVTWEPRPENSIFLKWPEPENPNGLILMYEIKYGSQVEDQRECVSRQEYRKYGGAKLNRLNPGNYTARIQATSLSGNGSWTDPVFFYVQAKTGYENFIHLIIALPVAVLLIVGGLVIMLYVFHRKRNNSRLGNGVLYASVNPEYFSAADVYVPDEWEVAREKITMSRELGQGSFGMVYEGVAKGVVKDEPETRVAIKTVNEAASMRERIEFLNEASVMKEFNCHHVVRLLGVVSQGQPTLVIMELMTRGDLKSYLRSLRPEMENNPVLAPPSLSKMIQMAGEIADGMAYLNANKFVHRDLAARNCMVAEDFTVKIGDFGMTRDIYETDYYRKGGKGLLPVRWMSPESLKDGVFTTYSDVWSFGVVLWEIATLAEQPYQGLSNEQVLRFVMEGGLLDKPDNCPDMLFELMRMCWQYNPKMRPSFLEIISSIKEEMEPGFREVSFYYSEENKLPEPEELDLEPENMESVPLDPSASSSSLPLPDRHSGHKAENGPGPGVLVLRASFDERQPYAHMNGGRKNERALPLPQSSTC
For assay [7], the target named is BDNF/NT-3 growth factors receptor (Homo sapiens, UniProt Q16620). It counts as functional.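 Further: NTRK2 measured as one member of a broad kinome-wide kinase profiling panel.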
Chain of BDNF/NT-3 growth factors receptor (Q16620 whole entry): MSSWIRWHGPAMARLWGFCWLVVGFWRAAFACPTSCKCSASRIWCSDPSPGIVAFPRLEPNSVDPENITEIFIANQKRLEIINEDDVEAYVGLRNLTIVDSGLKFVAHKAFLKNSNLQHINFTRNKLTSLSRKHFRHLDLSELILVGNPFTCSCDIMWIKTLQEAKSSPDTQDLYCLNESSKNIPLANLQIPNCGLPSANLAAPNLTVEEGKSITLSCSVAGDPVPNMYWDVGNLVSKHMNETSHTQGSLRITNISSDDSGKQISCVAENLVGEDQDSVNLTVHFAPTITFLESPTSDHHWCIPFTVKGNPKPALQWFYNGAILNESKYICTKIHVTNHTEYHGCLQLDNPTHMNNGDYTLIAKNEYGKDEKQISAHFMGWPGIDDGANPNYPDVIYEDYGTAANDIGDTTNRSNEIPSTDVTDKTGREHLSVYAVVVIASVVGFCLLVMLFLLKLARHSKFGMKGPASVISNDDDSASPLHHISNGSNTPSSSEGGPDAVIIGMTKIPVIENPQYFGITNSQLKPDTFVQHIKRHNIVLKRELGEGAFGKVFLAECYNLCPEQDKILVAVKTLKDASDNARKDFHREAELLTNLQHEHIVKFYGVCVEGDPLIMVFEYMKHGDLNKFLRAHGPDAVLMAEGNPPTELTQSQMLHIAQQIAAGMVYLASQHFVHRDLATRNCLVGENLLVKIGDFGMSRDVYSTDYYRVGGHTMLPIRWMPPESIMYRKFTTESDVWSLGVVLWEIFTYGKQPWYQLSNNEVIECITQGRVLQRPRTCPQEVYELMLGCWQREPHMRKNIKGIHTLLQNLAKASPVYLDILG
For assay [8], the target named is Protein kinase C theta type (Homo sapiens, UniProt Q04759). Nature of the assay: Navigating the Kinome. Panel member name: PRKCQ. It counts as functional.
For assay [9], the target named is Dual specificity protein kinase CLK2 (Homo sapiens, UniProt P49760). It counts as functional.
Chain of Dual specificity protein kinase CLK2 (P49760 whole entry): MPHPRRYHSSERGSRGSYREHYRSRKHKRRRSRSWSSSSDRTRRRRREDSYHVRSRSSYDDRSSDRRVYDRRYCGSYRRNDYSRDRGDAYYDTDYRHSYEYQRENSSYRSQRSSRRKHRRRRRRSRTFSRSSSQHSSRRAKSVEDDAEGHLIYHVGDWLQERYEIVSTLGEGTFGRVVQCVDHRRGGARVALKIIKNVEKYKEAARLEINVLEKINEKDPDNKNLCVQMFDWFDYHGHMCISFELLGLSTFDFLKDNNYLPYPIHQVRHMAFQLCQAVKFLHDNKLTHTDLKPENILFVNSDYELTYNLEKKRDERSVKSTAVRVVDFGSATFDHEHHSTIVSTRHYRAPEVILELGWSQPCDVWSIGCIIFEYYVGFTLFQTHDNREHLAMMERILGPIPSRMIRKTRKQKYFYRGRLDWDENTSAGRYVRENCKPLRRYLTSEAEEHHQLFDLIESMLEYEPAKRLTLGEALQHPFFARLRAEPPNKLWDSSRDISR
Assay [10] deals with Dual specificity mitogen-activated protein kinase kinase 1 (Homo sapiens, UniProt Q02750). Nature of the assay: Navigating the Kinome. Panel member name: MAP2K1. In kind it is functional.
Chain of Dual specificity mitogen-activated protein kinase kinase 1 (Q02750 whole entry): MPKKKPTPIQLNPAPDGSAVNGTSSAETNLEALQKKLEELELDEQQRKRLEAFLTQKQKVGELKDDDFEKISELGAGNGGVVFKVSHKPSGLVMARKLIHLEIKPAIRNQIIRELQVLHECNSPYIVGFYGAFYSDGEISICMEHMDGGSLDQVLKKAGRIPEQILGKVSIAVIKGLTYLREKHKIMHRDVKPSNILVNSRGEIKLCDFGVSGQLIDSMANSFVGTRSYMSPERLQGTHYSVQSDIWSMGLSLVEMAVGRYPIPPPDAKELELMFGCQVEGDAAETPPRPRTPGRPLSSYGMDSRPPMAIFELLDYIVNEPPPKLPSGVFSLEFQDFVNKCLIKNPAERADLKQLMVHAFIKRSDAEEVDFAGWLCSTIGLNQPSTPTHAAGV
Assay [11] deals with ALK tyrosine kinase receptor (Homo sapiens, UniProt Q9UM73). In kind it is functional.
In assay [12] the target is Proto-oncogene tyrosine-protein kinase receptor Ret (Homo sapiens, UniProt P07949). In kind it is functional.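 Further: measured within a kinome-wide profiling panel, RET as the panel member.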
Assay [13] has as its target Activin receptor type-1 (Homo sapiens, UniProt Q04771). Nature of the assay: Navigating the Kinome. Panel member name: ACVR1. In kind it is functional.
Assay [14] addresses Mitogen-activated protein kinase 8 (Homo sapiens, UniProt P45983). It counts as functional.
Assay [15] has as its target T2, Aurora kinase A (Homo sapiens, UniProt O14965).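 Further: value from the Navigating the Kinome kinase panel profiling, panel entry STK6.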
T2 sequence (O14965 whole entry): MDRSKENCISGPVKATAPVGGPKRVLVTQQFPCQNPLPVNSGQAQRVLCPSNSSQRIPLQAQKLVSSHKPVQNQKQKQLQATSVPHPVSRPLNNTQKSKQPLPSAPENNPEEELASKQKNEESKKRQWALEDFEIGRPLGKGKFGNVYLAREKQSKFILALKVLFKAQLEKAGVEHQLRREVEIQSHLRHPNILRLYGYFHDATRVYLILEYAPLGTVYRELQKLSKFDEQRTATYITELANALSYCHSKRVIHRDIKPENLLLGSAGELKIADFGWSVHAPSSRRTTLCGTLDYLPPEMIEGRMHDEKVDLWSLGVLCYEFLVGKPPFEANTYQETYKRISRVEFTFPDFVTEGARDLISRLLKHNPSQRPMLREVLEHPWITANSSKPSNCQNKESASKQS
It counts as functional.

Assay [16] deals with Casein kinase I isoform alpha (Homo sapiens, UniProt P48729). In kind it is functional.
Chain of Casein kinase I isoform alpha (P48729 whole entry, canonical isoform): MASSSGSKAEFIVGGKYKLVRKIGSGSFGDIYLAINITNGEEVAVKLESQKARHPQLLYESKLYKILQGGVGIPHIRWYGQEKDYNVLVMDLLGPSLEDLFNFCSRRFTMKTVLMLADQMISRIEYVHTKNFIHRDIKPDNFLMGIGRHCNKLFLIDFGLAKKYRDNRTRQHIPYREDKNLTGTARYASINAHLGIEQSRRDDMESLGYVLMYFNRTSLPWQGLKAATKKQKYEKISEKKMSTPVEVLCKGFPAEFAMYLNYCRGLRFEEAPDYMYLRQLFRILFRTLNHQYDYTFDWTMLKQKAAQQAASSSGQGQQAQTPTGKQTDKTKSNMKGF
Assay [17] has as its target Mitogen-activated protein kinase 9 (Homo sapiens, UniProt P45984). It counts as functional.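 Further: value from a kinome panel profiling assay, MAPK9 panel entry.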
The target of assay [18] is Hepatocyte growth factor receptor (Homo sapiens, UniProt P08581). It counts as functional.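 Further: kinase panel profiling across the kinome, with MET as the panel member.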
Assay [19] has as its target Dual specificity tyrosine-phosphorylation-regulated kinase 1B (Homo sapiens, UniProt Q9Y463). Briefly: Navigating the Kinome. Panel member name: DYRK1B. In kind it is functional.
For assay [20], the target named is Cyclin-dependent kinase 7 (Homo sapiens, UniProt P50613). It counts as functional.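 Further: value comes from a kinome-wide kinase profiling panel in which CDK7 is one member.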
Assay [21] deals with cAMP-dependent protein kinase catalytic subunit alpha (Homo sapiens, UniProt P17612). It counts as functional.
In assay [22] the target is Macrophage colony-stimulating factor 1 receptor (Homo sapiens, UniProt P07333). It counts as functional.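 Further: value comes from the Navigating the Kinome screening panel, CSF1R member.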
Chain of Macrophage colony-stimulating factor 1 receptor (P07333 whole entry): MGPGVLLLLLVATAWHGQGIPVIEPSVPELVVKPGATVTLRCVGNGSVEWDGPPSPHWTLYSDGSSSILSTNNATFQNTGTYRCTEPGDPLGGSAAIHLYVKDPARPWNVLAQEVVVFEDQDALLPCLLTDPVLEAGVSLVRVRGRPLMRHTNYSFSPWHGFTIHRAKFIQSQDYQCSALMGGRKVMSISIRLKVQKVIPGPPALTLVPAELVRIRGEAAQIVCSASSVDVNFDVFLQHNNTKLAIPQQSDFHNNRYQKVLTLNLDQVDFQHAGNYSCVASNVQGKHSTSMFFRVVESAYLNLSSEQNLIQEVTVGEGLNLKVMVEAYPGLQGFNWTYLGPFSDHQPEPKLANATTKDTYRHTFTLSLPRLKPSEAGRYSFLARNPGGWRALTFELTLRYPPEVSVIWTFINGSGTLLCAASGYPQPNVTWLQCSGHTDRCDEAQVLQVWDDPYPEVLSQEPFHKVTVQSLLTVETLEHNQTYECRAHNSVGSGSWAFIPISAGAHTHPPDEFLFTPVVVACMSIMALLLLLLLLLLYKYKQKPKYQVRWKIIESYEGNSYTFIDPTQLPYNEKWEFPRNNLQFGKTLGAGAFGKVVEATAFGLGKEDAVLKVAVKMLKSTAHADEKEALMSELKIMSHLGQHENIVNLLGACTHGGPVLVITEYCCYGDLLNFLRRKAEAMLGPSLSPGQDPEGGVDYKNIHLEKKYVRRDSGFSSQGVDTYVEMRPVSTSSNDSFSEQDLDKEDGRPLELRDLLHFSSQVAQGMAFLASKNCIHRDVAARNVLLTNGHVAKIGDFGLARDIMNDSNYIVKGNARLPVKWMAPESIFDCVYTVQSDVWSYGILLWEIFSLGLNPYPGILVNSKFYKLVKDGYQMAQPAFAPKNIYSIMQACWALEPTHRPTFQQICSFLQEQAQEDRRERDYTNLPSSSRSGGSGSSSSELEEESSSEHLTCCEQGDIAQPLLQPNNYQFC

Chain of Dual specificity tyrosine-phosphorylation-regulated kinase 1B (Q9Y463 whole entry): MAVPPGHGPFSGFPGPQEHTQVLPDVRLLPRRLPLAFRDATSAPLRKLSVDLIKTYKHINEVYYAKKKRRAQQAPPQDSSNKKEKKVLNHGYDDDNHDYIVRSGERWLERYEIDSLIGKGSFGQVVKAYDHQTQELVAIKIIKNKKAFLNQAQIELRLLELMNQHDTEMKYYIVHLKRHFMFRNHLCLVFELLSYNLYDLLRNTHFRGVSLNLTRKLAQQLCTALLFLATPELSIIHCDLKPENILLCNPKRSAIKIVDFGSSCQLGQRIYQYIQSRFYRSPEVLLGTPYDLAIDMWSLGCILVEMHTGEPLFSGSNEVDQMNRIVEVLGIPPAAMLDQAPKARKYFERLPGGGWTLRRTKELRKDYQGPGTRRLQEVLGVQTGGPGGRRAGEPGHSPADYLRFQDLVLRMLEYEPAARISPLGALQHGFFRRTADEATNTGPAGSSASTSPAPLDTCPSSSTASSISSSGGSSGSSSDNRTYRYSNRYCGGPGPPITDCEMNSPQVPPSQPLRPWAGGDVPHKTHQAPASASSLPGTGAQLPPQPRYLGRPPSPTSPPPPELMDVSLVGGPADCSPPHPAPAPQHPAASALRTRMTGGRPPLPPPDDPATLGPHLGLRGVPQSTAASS

By AC50 is commonly meant the midpoint of the concentration-response curve, whichever way the signal moves. In the case of `CC(C)(C)c1cc[n+](C2=C([N-]S(=O)(=O)c3cccs3)C(=O)c3ccccc3C2=O)cc1`, in assay [1], the AC50 is 3.18 µM (active).

Broadly, the Ki is the equilibrium dissociation constant of an inhibitor or competing ligand from its target. `Cc1ccc(F)c(NC(=O)Nc2ccc(-c3cccc4[nH]nc(N)c34)cc2)c1` [LINIFANIB]: the Ki in assay [2] was > 6.31 µM (inactive); in [3] it was > 3.98 µM (inactive); in [4], > 3.98 µM (inactive); in assay [5], > 3.16 µM (inactive); in assay [6], > 2.51 µM (inactive); in assay [7], 0.631 µM (active).

As to `COc1c(-c2nc3ccccc3[nH]2)c(O)cc2oc(C)cc(=O)c12`, the Ki in assay [8] was 0.398 µM (active); in [9] it was > 3.98 µM (inactive); in [10], 0.631 µM (active); in assay [11], 1.26 µM (active); in [12] it was 1.26 µM (active); in assay [13] it was 1.26 µM (active). For the same compound, the Ki was 0.631 µM (active) in assay [14]; 0.398 µM (active) in [2]; 0.251 µM (active) in assay [15]; 1.58 µM (active) in assay [16]; 2.51 µM (active) in assay [17]; 1 µM (active) in assay [3]. Moreover, the Ki in assay [18] is 0.126 µM (active); in assay [4], > 3.98 µM (inactive); in [5] it was 0.0398 µM (active); in assay [6], > 2.51 µM (inactive); in assay [19], 0.398 µM (active); in [20], 0.501 µM (active). In addition, the Ki was 3.16 µM (active) in assay [7], 0.501 µM (active) in assay [21] and 2 µM (active) in assay [22].

With `COC(=O)c1c(N)nc2ccccn12`, the Ki was > 100 µM (inactive) in [8]; 63.1 µM (active) in assay [9]; 31.6 µM (active) in assay [10]; 25.1 µM (active) in assay [11]; 63.1 µM (active) in assay [12]; 50.1 µM (active) in assay [13]. In addition, the Ki is 7.94 µM (active) in assay [14]; > 63.1 µM (inactive) in [15]; 6.31 µM (active) in [16]; 31.6 µM (active) in assay [17]; 79.4 µM (active) in assay [18]; 20 µM (active) in assay [19]. Further, the Ki in assay [20] is 63.1 µM (active); in assay [21] it was 10 µM (active); in [22], 79.4 µM (active).

As to `O=C1/C(=C\c2cccc(O)c2O)SC(=S)N1Cc1ccccc1`, the AC50 in assay [1] was 1.26 µM (active).
